# Measured values taken from patent US20090053138A1, “Stabilized Aptamers to Platelet Derived Growth Factor and their Use as Oncology Therapeutics” (priority 2002, published 2009).
# Like-named read-outs stand apart in the source and are kept apart here. {PEG40k} = 40 kDa polyethylene glycol; [invdT] = inverted (3'-3') thymidine; [HEG] = hexaethylene glycol spacer
# Experiments:
# PDGF = test: PDGF-driven Elk Luciferase reporter gene assay; type: cell-based; conditions: PDGF 50 ng/ml, 3T3 cells
# Experimental: 10,000 3T3 cells/well were plated in DMEM/10% FBS in a 96 well plate. They were transfected using FuGene (Roche, Indianapolis, Ind.) at 3:1 ratio with 5 ng of ELK-1 (Stratagene, La Jolla, Calif.) and 20 ng of pFR-Luciferase plasmids (Stratagene, La Jolla, Calif.). When PDGF is added at a final concentration of 50 ng/ml to 3T3 cells, an increase in the Luciferase signal can be observed which corresponds to the effect of the mitogen on the reporter gene. Steady Glo Luciferase assay (Promega, Madison, Wis.) was used to detect luciferase. […] (FIG. 17.)
# [1] = mouse, in vivo, 10 mg/kg
# Excerpt: The pharmacokinetic (PK) data shown in FIG. 12A was subjected to non-compartmental analysis (NCA) using the industry-standard software package WinNonLin™ v.4.0 (Pharsight Corp., Mountain View, Calif.). […] The pharmacokinetic (PK) data shown in FIG. 12B was subjected to noncompartmental analysis (NCA) using the industry-standard software package WinNonLin™ v.4.0 (Pharsight Corp., Mountain View, Calif.).
# The pharmacokinetic (PK) data shown in FIG. 12B was subjected to noncompartmental analysis (NCA) using the industry-standard software package WinNonLin™ v.4.0 (Pharsight Corp., Mountain View, Calif.).
# U87 glioblastoma cells = test: Clonogenic growth assay; type: cell-based
# Experimental: U87 glioblastoma cells (ATCC) were grown in the presence or absence of mitogen as well as aptamer as shown in the panels. U87 cells were plated in DMEM/10% FBS to 50% confluency in 100 mm dishes. […] The addition of a final concentration of 50 ng/ml PDGF BB alone caused the appearance of highly connected three dimensional cell clusters. […] Thus, the aptamer blocks cell to cell adhesion of U87 cells which are known to have PDGF driven autocrine loops.
substance,measurement,setting,value
"5′-[40 K PEG]-(SEQ ID NO:1)-HEG-(SEQ ID NO:2)-HEG-(SEQ ID NO:3)-3′-dT-3′ (chain 1 CAGGCUACG; chain 2 CGTAGAGCAUCA; chain 3 TGATCCUG; piece 1: 2'-fluoro at 6, 8, 2'-O-methyl at 9, 5' {PEG40k}, 3' [HEG], other sugars and backbone not given here; piece 2: 2'-O-methyl at 5, 7, 12, 2'-fluoro at 10, 11, 3' [HEG], other sugars and backbone not given here; piece 3: 2'-fluoro at 5, 6, 7, 2'-O-methyl at 8, 3' [invdT], other sugars and backbone not given here) [ARC127]",IC50,PDGF,≤ 2 nM
same,concentration reducing the Luciferase signal to no mitogen levels,PDGF,3 nM
same,Cmax,[1]; ip,12.8 µM
same,Vz,[1]; ip,0.078 L/kg
same,"bioavailability, F",[1]; ip,0.625
same,t1/2,[1]; ip,7.856 h
same,Cmax,[1]; iv,29.7 µM
same,Vz,[1]; iv,0.053 L/kg
same,"bioavailability, F",[1]; iv,1.000
same,Cmax,[1]; sc,3.18 µM
same,Vz,[1]; sc,0.238 L/kg
same,"bioavailability, F",[1]; sc,0.240
same,t1/2,[1]; sc,9.176 h
same,proliferation rate of U87 cells (MTT assay),U87 glioblastoma cells,no effect on proliferation rate
same,occurrence of three dimensional cell clusters,U87 glioblastoma cells; 50 ng/ml PDGF-BB plus ARC127,reduced the occurrence of clusters to background level
